Patent publication US8703712B2, “Targeting cancer stem cells with DR5 agonists” (The UAB Research Foundation, priority 2011, dated 2014)

Columns and labels:
2LMP ALDH+ cells [1] = experiment: Ex vivo treatment of sorted BCSC and tumor implantation; format: in vivo, NOD/SCID mice; settings: cells treated ex vivo with 500 nM Adriamycin for 3 hours, 4×10^4 cells into mammary fat pad; by day 51
Procedure: (§1) FIGS. 14A and 14B are graphs showing ex vivo treatment of sorted BCSCs inhibited tumorigenesis and progression in NOD/SCID mice. The graphs represent average tumor size (product of two diameters).
(§2) • Drugs and Antibodies. Adriamycin and Taxol were purchased from Sigma Aldrich Chemical Co. (St. Louis, Mo.) and prepared as 10 mM stock solutions in distilled H2O or DMSO, respectively. Purified TRA-8 (IgG1) mAb was prepared as described previously (Ichikawa et al., Nat. Med. 7:954-60 (2001) and WO01/83560). Isotype-specific IgG1 control antibody was obtained from Southern Biotechnology Associates (Birmingham, Ala.). Anti-DR4 mAb 2E12 (IgG1, k) was described previously (WO03/37913). Super Killer TRAIL™ was purchased from Alexis Biochemicals (Plymouth Meeting, Pa.). Conjugated antibodies APC mouse anti-human CD44, PE-Cy7 rat anti-mouse CD44, and corresponding isotype control antibodies were purchased from BD Pharmingen (San Jose, Calif.). […] BCSC markers were analyzed on attached bulk cell populations. […] Samples were sorted on a Becton-Dickinson-FACSAriaII™ or analyzed on Becton-Dickinson-LSRII™ flow cytometer (Chicago, Ill.). Data were evaluated using FlowJo software (FlowJo; Ashland, Oreg.). • DR5 Expression and Functional Caspase Activation. […] Samples were analyzed by flow cytometry for DR5 expression on the ALDH^+/CD44^+/CD24^− subpopulation. […]

SUM159 ALDH+ cells = experiment: as above; format: in vivo, NOD/SCID mice; settings: cells treated ex vivo with 500 nM Adriamycin for 3 hours, implanted into mammary fat pad
Procedure: as §1, §2

[2] = tested on: 2LMP and SUM159 ALDH+ tumorsphere cells; experiment: Secondary tumorsphere formation; format: cell-based, human; settings: 2LMP and SUM159 sphere cells; TRAIL and 2E12 at concentrations equimolar to TRA-8
Procedure: Bars are normalized relative to untreated control and represent quadruplicate runs. Error bars denote standard deviation (SD).
as §2, with “Calif.). ALDEFLUOR® kit including diethylaminobenzaldehyde (DEAB) negative control was obtained from StemCell Technologies (Durham, N.C.). Cleaved caspase-8 rabbit mAb and cleaved caspase-3 rabbit mAb were purchased from Cell Signaling (Billerica, Mass.). Secondary antibodies, Alexa tluor 405 goat anti-rabbit IgG and Alexa fluor 647 goat anti-mouse IgG1 were purchased from Invitrogen (Carlsbad, Calif.). • Cells and Cell Culture. The 2LMP subclone of the human breast cancer cell line MDA-MB-231 was maintained in improved MEM supplemented with 10% FBS (Hyclone; Logan, Utah).” for “Calif.).”

2LMP ALDH+ cells [3] = experiment: Annexin V-propidium iodide apoptosis assay (flow cytometry); format: cell-based, human; settings: 5 μM MRK003
Procedure: 2LMP ALDH^+ cells were sorted by flow cytometry and treated with MRK003 GSI (or DMSO) for 24 hours followed by TRA-8 (or media) for an additional 24 hours before measuring ATP levels. […] Similar results were found in studies using CSC-enriched cell populations derived from sphere cultures. The results were confirmed using annexin V-propidium iodide assays and flow cytometry to measure apoptosis.

Molecule	mice that developed tumors (2LMP ALDH+ cells [1])	mice that developed tumors (SUM159 ALDH+ cells)	inhibition of secondary tumorsphere formation (in words) [2]	annexin-V-positive (2LMP ALDH+ cells [3])
COc1cccc2c1C(=O)c1c(O)c3c(c(O)c1C2=O)C[C@@](O)(C(=O)CO)C[C@@H]3O[C@H]1C[C@H](N)[C@H](O)[C@H](C)O1 [Adriamycin]	Five out of five	zero out of five	did not completely inhibit	
O=S1(=O)N[C@@]2(CN1CC(F)(F)F)[C@@H]1CC[C@H]2Cc2ccc(/C=C/CN3CCC(C(F)(F)F)CC3)cc2C1 [MRK003]				36%
CC(=O)O[C@H]1C(=O)[C@@]2(C)[C@H]([C@H](OC(=O)c3ccccc3)[C@]3(O)C[C@H](OC(=O)[C@H](O)[C@@H](NC(=O)c4ccccc4)c4ccccc4)C(C)=C1C3(C)C)[C@]1(OC(C)=O)CO[C@@H]1C[C@@H]2O [Taxol]			did not completely inhibit	
TRAIL: Super Killer TRAIL™ purchased from Alexis Biochemicals; death receptor ligand (protein, UniProt P50591 39-281, looked up, extracellular domain Super Killer TRAIL engineered soluble form, Super Killer TRAIL™ purchased from Alexis Biochemicals; death receptor ligand) extracellular domain: TNELKQMQDKYSKSGIACFLKEDDSYWDPNDEESMNSPCWQVKWQLRQLVRKMILRTSEETISTVQEKQQNISPLVRERGPQRVAAHITGTRGRSNTLSSPNSKNEKALGRKINSWESSRSGHSFLSNLHLRNGELVIHEKGFYYIYSQTYFRFQEEIKENTKNDKQMVQYIYKYTSYPDPILLMKSARNSCWSKDAEYGLYSIYQGGIFELKENDRIFVSVTNEHLIDMDHEASFFGAFLVG			only partially inhibitory	
